From article PMC10006169, “A phase I trial of LXS196, a protein kinase C (PKC) inhibitor, for metastatic uveal melanoma” (British Journal of Cancer, 2023)
Where two headings read alike, the source gives them in different places.

Test: Plasma pharmacokinetics (LC-MS/MS)
Format: in vivo, human
Details: human, plasma, oral; for Tmax: read-out: Tmax, Median (Min, max)
Description: In the dose escalation part of the study, PK samples were collected at various pre- and post-dose time points on C1D1, D2, D3, D15 and D16. Drug concentrations were assessed using a validated liquid chromatography-tandem mass spectrometry assay.

CC1(N)CCN(c2cccnc2NC(=O)c2nc(-c3ncccc3C(F)(F)F)cnc2N)CC1 [LXS196]
AUC(0-t) (300 mg, C1D1, 300 mg BID, n=17, read-out: AUC0-t, Geo-mean): 18700 ng·h/mL | AUC(0-t) (300 mg, C1D1, 300 mg BID, n=17, read-out: AUC0-t, Mean (SD)): 20500 ng·h/mL | AUC(0-t) (300 mg, C1D1, 300 mg BID, n=17, read-out: AUC0-t, Median (Min, max)): 17000 ng·h/mL | Cmax (300 mg, C1D1, 300 mg BID, n=17, read-out: Cmax, Geo-mean): 3850 ng/mL | Cmax (300 mg, C1D1, 300 mg BID, n=17, read-out: Cmax, Mean (SD)): 4100 ng/mL | Cmax (300 mg, C1D1, 300 mg BID, n=17, read-out: Cmax, Median (Min, max)): 4210 ng/mL | Tmax (300 mg, C1D1, 300 mg BID, n=17): 1 h | AUC(0-t) (300 mg, C1D1, 300 mg QD, n=15, read-out: AUC0-t, Geo-mean): 34000 ng·h/mL | AUC(0-t) (300 mg, C1D1, 300 mg QD, n=15, read-out: AUC0-t, Mean (SD)): 40200 ng·h/mL | AUC(0-t) (300 mg, C1D1, 300 mg QD, n=15, read-out: AUC0-t, Median (Min, max)): 34400 ng·h/mL | AUC(0-inf) (300 mg, C1D1, 300 mg QD, n=15, read-out: AUCinf, Geo-mean): 42100 ng·h/mL | AUC(0-inf) (300 mg, C1D1, 300 mg QD, n=15, read-out: AUCinf, Mean (SD)): 51300 ng·h/mL | AUC(0-inf) (300 mg, C1D1, 300 mg QD, n=15, read-out: AUCinf, Median (Min, max)): 43100 ng·h/mL | Cmax (300 mg, C1D1, 300 mg QD, n=15, read-out: Cmax, Geo-mean): 4940 ng/mL | Cmax (300 mg, C1D1, 300 mg QD, n=15, read-out: Cmax, Mean (SD)): 5580 ng/mL | Cmax (300 mg, C1D1, 300 mg QD, n=15, read-out: Cmax, Median (Min, max)): 5370 ng/mL | half-life (300 mg, C1D1, 300 mg QD, n=15, read-out: T1/2, Geo-mean (converted)): 10.7 h | half-life (300 mg, C1D1, 300 mg QD, n=15, read-out: T1/2, Mean (SD) (converted)): 10.8 h | half-life (300 mg, C1D1, 300 mg QD, n=15, read-out: T1/2, Median (Min, max) (converted)): 11.1 h | Tmax (300 mg, C1D1, 300 mg QD, n=15): 1 h | AUC(0-t) (300 mg, C1D15, 300 mg BID, n=12, read-out: AUC0-t, Geo-mean): 18300 ng·h/mL | AUC(0-t) (300 mg, C1D15, 300 mg BID, n=12, read-out: AUC0-t, Mean (SD)): 19100 ng·h/mL | AUC(0-t) (300 mg, C1D15, 300 mg BID, n=12, read-out: AUC0-t, Median (Min, max)): 17400 ng·h/mL | Cmax (300 mg, C1D15, 300 mg BID, n=17, read-out: Cmax, Geo-mean): 2800 ng/mL | Cmax (300 mg, C1D15, 300 mg BID, n=17, read-out: Cmax, Mean (SD)): 2860 ng/mL | Cmax (300 mg, C1D15, 300 mg BID, n=17, read-out: Cmax, Median (Min, max)): 2880 ng/mL | Tmax (300 mg, C1D15, 300 mg BID, n=17): 0.567 h | AUC(0-t) (300 mg, C1D15, 300 mg QD, n=13, read-out: AUC0-t, Geo-mean): 26500 ng·h/mL | AUC(0-t) (300 mg, C1D15, 300 mg QD, n=13, read-out: AUC0-t, Mean (SD)): 30500 ng·h/mL | AUC(0-t) (300 mg, C1D15, 300 mg QD, n=13, read-out: AUC0-t, Median (Min, max)): 27900 ng·h/mL | Cmax (300 mg, C1D15, 300 mg QD, n=14, read-out: Cmax, Geo-mean): 3500 ng/mL | Cmax (300 mg, C1D15, 300 mg QD, n=14, read-out: Cmax, Mean (SD)): 3860 ng/mL | Cmax (300 mg, C1D15, 300 mg QD, n=14, read-out: Cmax, Median (Min, max)): 3310 ng/mL | concentration at 15 day (300 mg, C1D15, 300 mg QD, n=14, read-out: Cmin, Median (Min, max)): 326 ng/mL | Tmax (300 mg, C1D15, 300 mg QD, n=14): 1 h | AUC(0-t) (400 mg, C1D1, 400 mg BID, n=5, read-out: AUC0-t, Geo-mean): 16800 ng·h/mL | AUC(0-t) (400 mg, C1D1, 400 mg BID, n=5, read-out: AUC0-t, Mean (SD)): 18100 ng·h/mL | AUC(0-t) (400 mg, C1D1, 400 mg BID, n=5, read-out: AUC0-t, Median (Min, max)): 18200 ng·h/mL | AUC(0-inf) (400 mg, C1D1, 400 mg BID, n=5, read-out: AUCinf, Geo-mean): 28400 ng·h/mL | AUC(0-inf) (400 mg, C1D1, 400 mg BID, n=5, read-out: AUCinf, Mean (SD)): 30400 ng·h/mL | AUC(0-inf) (400 mg, C1D1, 400 mg BID, n=5, read-out: AUCinf, Median (Min, max)): 31700 ng·h/mL | Cmax (400 mg, C1D1, 400 mg BID, n=5, read-out: Cmax, Geo-mean): 3730 ng/mL | Cmax (400 mg, C1D1, 400 mg BID, n=5, read-out: Cmax, Mean (SD)): 4350 ng/mL | Cmax (400 mg, C1D1, 400 mg BID, n=5, read-out: Cmax, Median (Min, max)): 3850 ng/mL | half-life (400 mg, C1D1, 400 mg BID, n=5, read-out: T1/2, Geo-mean (converted)): 13.5 h | half-life (400 mg, C1D1, 400 mg BID, n=5, read-out: T1/2, Mean (SD) (converted)): 13.8 h | half-life (400 mg, C1D1, 400 mg BID, n=5, read-out: T1/2, Median (Min, max) (converted)): 14.5 h | Tmax (400 mg, C1D1, 400 mg BID, n=5): 1.03 h | AUC(0-t) (400 mg, C1D15, 400 mg BID, n=4, read-out: AUC0-t, Geo-mean): 15700 ng·h/mL | AUC(0-t) (400 mg, C1D15, 400 mg BID, n=4, read-out: AUC0-t, Mean (SD)): 15900 ng·h/mL | AUC(0-t) (400 mg, C1D15, 400 mg BID, n=4, read-out: AUC0-t, Median (Min, max)): 16000 ng·h/mL | Cmax (400 mg, C1D15, 400 mg BID, n=4, read-out: Cmax, Geo-mean): 2070 ng/mL | Cmax (400 mg, C1D15, 400 mg BID, n=4, read-out: Cmax, Mean (SD)): 2100 ng/mL | Cmax (400 mg, C1D15, 400 mg BID, n=4, read-out: Cmax, Median (Min, max)): 2060 ng/mL | Tmax (400 mg, C1D15, 400 mg BID, n=4): 0.842 h | AUC(0-t) (500 mg, C1D1, 500 mg QD, n=10, read-out: AUC0-t, Geo-mean): 48000 ng·h/mL | AUC(0-t) (500 mg, C1D1, 500 mg QD, n=10, read-out: AUC0-t, Mean (SD)): 50700 ng·h/mL
